In patent publication US6806269B1, “2-Amino-benzoxazinones for the treatment of herpes simplex virus” (G. D. Searle & Cop, priority 1999, dated 2004) one finds IC50, inhibition and EC50 data, which are given here for 13 compounds.

Some results are limits rather than exact numbers.

Test [1] addresses T1, HSV-1 protease (assemblin) (Human herpesvirus 1, UniProt P10210).
T1 construct: encoding residues 1-288 of HSV-1 UL26 open reading frame and 32 heterologous amino acid; 6xHis (N); made in house
The test is described as follows: Enzymatic assay for HSV-1 protease (assemblin) inhibition (FP assay / HPLC assay). To be noted: recombinant HSV-1 protease; 30 minute pre-incubation at room temperature; FP or HPLC format not stated; read-out: ENZYME IC50. The test is classed as biochemical. Here is the method:
Enzymatic Assay for HSV-1 Protease (Assemblin) Inhibition
Assemblin protease activity was determined using fluorescence polarization (FP). The fluorescent substrate was biotin-gamma-aminobutyrate -[…]-DTAF, based on the HSV-1release cleavage site. […] A change in molecular size of fluorescent substrate molecule, which was increased using avidin as a reaction stop reagent, allowed cleavage to be measured by FP. Potential protease inhibitors were dissolved in DMF and then diluted 5-fold in assay buffer. […] The enzyme was diluted to 21.3 ug/mL in assay buffer (1M NaCitrate, 50 mM NaPhosphate, pH 7.4, 100mM NaCl, 20% glycerol, 2 mM TECP) and 48.5 uL were added to each well. Following a 30 minute incubation at room temperature, 10 uL of 62.5 ug/mL substrate were added. After about 90 minute incubation at room temperature, 50 uL of 2 mg/mL avidin in phosphate buffer (50 mM Naphosphate, 100 mM NaCl, pH 7.4) were added to each well. The plates were read by a fluorescence polarization plate reader. Inhibitor potency was determined by comparison with incubations lacking inhibitor.
Assays were performed with the peptide substrate H-His-Thr-Tyr-Leu-Gln-Ala-Ser-Glu-Lys-Phe-Lys-Met-Trp-Gly-NH2 (Bachem). This substrate is a HSV-1-amide UL26 Open Reading Frame (242-255) and is derived from the release site of HSV-1 protease. HSV-1protease cleaves between alanine and serine. The product […] was quantified on HPLC using fluorescence detection of tryptophan residue. Enzyme was diluted to 4.3 ug/mL in assay buffer (1 M NaCitrate, 50 mM NaPhosphate, pH 7.3, 100 mM NaCl, 20% glycerol, 2 mM TCEP) and 48.5 uL were added to the tubes. Potential protease inhibitors were dissolved in DMF and then diluted 10-fold in assay buffer. 6.5 uL of inhibitor solution were added to each tube. Following a 30-minute incubation at room temperature, 10 uL of substrate in phosphate buffer (50 mM Naphosphate, 100 mM NaCl, pH 7.4) were added to all tubes. The final concentration of the substrate in the reaction mixtures was 10 uM. After a 15-minute incubation at room temperature, assays were quenched using 50 uL of 50% TCA. Inhibitor potency was determined by comparison with incubations lacking inhibitor, which under these conditions gave about 20% cleavage of substrate.
Recombinant HSV-1 Protease
HSV-1 protease was purified from baculovirus expressing a DNA construction encoding residues 1-288 of HSV-1 UL26 open reading frame and 32 heterologous amino acid. The construction also encoded six additional histidine residues at the amino terminus of the protease. These additional histidine residues provided an affinity ligand by which the protein was purified using Ni-NTA agarose gel (Qiagen). The purified protease was stored in stock solution (20 mM HEPES buffer, pH 8.5, containing 20% (v/v) glycerol). This stock was diluted with assay buffer to adequate concentration of enzymatic assay.
A specific substrate was synthesized based on the cleavage specificity of HSV-1 protease at the “release site” of the assembly protein (DiIanni, C. L., et al., J. Biol. Chem. 268, 2048, (1993)). The assembly protein release site has the sequence, HTYLQA*SEKFKMWG. The substrate used was biotin-gamma -aminobutyrate-HTYLQA*SERFRIK-DTAF which was prepared by standard peptide synthetic methods such as that described in Bodansky and Bodansky, “The Practice of Peptide Synthesis” (1984), and was stored as a stock solution at 2.5 mg/mL in DMF. This was diluted to 62.5 ug/mL with phosphate buffer (50 mM Naphosphate, […], pH 7.4) just before use.
The substrate was HSV-1-amide UL 26 Open Reading Frame (242-255), obtained from Bachem (Product No. M-2160).
An assay buffer (1 M NaCitrate, 50 mM NaPhosphate, pH 7.4, 100 mM NaCl, 20% glycerol, 2 mM TCEP) was used to dilute stock solutions of enzyme and inhibitors.

Test [2] deals with T2, Human leukocyte elastase (HLE) (Homo sapiens, UniProt P08246).
T2 construct: purchased CALBIOCHEM
T2 sequence (P08246 30-267): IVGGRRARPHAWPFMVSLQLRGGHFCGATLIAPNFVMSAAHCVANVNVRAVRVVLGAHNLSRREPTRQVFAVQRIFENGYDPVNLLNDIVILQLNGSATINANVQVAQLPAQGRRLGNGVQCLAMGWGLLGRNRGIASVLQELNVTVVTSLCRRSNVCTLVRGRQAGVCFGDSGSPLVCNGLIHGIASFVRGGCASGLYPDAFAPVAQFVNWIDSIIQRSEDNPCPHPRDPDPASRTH
Kind of test: Human leukocyte elastase assay. The test is classed as biochemical. The settings on record: 50 μM compound; 30 minutes pre-incubation. Here is the method:
Human Leukocyte Elastase Assay
Human leukocyte elastase (HLE) (CALBIOCHEM) was dissolved in saline at 1 mg/ml and further diluted 1/10 in assay buffer (0.2 M Tris, pH 8.0) before use.
0.75 μl of test compound in DMF (or DMF alone), 50 μl of assay buffer and 50 μl of enzyme were added to 96 well plate, mixed and pre-incubated for 30 minutes at ambient temperature. Reaction was initiated by addition of 50 μl of 2.5 mM methoxysuccinyl-Ala-Ala-Pro-Val-p-nitroanilide (Sigma; 25 mM in DMSO diluted 1/10 in assay buffer before use). The increase in absorbance at 405 nm was monitored for 3 min. with BIO-RAD model 3550 microplate reader.

In another test the test system is HSV-1. Kind of test: Antiviral assay: plaque reduction assay, HSV-1 in vero cells. In kind it is cell-based, HSV-1 (vero cells, African green monkey kidney cell). The settings on record: Human alphaherpesvirus 1, Vero, 72 h, read-out: ANTIVIRUS EC50. From the text: These complimentary assays tested the ability of a compound to inhibit the production of new virus and the toxicity of the compound to the host cells. It was important that both assays be performed simultaneously in order to compare the results directly since toxicity may indirectly reduce viral replication.
The antiviral assay was estimated by plaque reduction assay performed by following methods. 1×10^5 of vero cells (African green monkey kidney cell) in 48-well plates were over-night cultured and the medium of this culture was replaced with 200 μl of 2% FBS DMEM containing 2× the desired final cordon of test compounds or no compound as control. The cultures were added 50 μl of 2% FBS DMEM containing with about 50 plaque forming units of HSV-1and next 250 μl of 2% FBS DMEM containing 1% methylcellulose. These infected cultures were incubated at 37° C., 5% CO2 for 3 days until plaques was visible. The cells were fixed and stained simultaneously with 0.025% crystalviolet in 5% formalin solution and plaque were counted. The concentration of test compound which conferred 50% inhibition of plaque formation compared to no compound control was interpolated from the observed data and defined as IC50.
On the technique in general: Plaque reduction counts the foci of infection that form in a cell layer.

Test [3] deals with T3, Bovine pancreas α-chymotripsin (Bos taurus, UniProt P00766).
T3 construct: purchased Sigma type II; host or cells: bovine pancreas
The test is described as follows: Chymotripsin assay. The test is classed as biochemical. To be noted: 50 μM compound; 30 minutes pre-incubation; read-out: INHIBITION AT 50 μM CHYMOTRYPSIN (%). Here is the method: The chymotripsin assay was modified from the method of Delmar, et al. (Anal. Biochem. 99, 316-320 (1979)). Bovine pancreas α-chymotripsin(type II, Sigma) was dissolved in 0.001 N HCl at 1 mg/ml and further diluted 1/1000 in assay buffer (0.1 M Tris, pH 7.8 containing 0.1 M CaCl2) before use. 0.75 μl of test compound in DMF (or DMF alone), 50 μl of assay buffer and 50 μl of enzyme were added to 96 wells plates, mixed and pre-incubated for 30 minutes at ambient temperature. Reaction was initiated by addition of 50 μl of 0.2 mM N-succinyl-Ala-Ala-Pro-Phe-p-nitroanilide (Sigma; 2 mM in DMSO diluted 1/10 in assay buffer before use). The increase in absorbance at 405 nm was monitored for 3 minutes with BIO-RAD model 3550 microplate-reader.

T1 sequence (P10210 1-288): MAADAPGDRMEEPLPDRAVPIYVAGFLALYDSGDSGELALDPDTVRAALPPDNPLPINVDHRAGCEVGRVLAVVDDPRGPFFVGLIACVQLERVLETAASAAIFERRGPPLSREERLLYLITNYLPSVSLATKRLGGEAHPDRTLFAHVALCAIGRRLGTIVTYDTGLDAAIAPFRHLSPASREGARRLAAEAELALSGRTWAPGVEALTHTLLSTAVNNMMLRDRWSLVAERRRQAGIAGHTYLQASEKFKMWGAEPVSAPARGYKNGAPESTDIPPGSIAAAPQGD

On to `Cc1c(NC(=O)OC(C)(C)C)ccc2nc(N(C)Cc3ccccn3)oc(=O)c12` [Compound 18, 6-[[(1-Dimethylethoxy)carbonyl]amino]-5-methyl-2-[methyl(2-pyridylmethyl)-amino]-4H-3,1-benzoxazin-4-one], for which the IC50 (in general, the point on the concentration scale where inhibition reaches its midpoint) in test [1] was found to be 1.5 µM. In addition, the inhibition (commonly the change of the read-out against control, counted positive when it falls) at 50 µM in test [2] was found to be 28.7%; in test [3] it was 0%. The EC50 (in general, the concentration needed to bring the measured effect to its halfway point) in the test on HSV-1 came out at 15.1 µM.

On to `Cc1c(NC(=O)OC(C)(C)C)ccc2nc(N(C)Cc3ccccc3)oc(=O)c12` [Compound 1, 6-[[(1,1-Dimethylethoxy)carbonyl]amino]-5-methyl-2-[methyl(phenylmethyl)amino]-4H-3,1-benzoxazin-4-one], for which the half-maximal inhibitory concentration (IC50) in test [1] was determined as 0.6 µM. Moreover, the inhibition at 50 µM in test [2] amounted to 32%; in test [3], 13%. In the test on HSV-1, the EC50 came to 1.1 µM.

Consider `Cc1c(NC(=O)c2ccccc2)ccc2nc(N(C)Cc3ccccc3)oc(=O)c12` [Compound 2, 6-(benzoylamino)-5-methyl-2-[methyl(phenylmethyl)amino]-4H-3,1-benzoxazin-4-one], for which the IC50 in test [1] is 0.7 µM. In addition, the inhibition at 50 µM in test [2] turned out to be 26%; in test [3] it was 7%. In addition, the EC50 in the test with HSV-1 stood at 4.6 µM.

As to `Cc1c(NC(=O)OC(C)(C)C)ccc2nc(N(C)Cc3ccc(N(C)C)cc3)oc(=O)c12` [Compound 4, 6-[[(1,1-Dimethylethoxy)carbonyl]amino]-5-methyl-2-[[[4-(dimethylamino)phenyl]methyl]methylamino]-4H-3,1-benzoxazin-4-one], the IC50 in test [1] is 1.3 µM. Further, the inhibition at 50 µM in test [2] and in test [3] was 0% in each case. Moreover, the EC50 in the test on HSV-1 was 0.05 µM.

Take `Cc1c(NC(=O)OC(C)(C)C)ccc2nc(N(C)C(C)C)oc(=O)c12` [Compound 10, 6-[[(1,1-Dimethylethoxy)carbonyl]amino]-5-methyl-2-[isopropyl(methyl)amino]-4H-3,1-benzoxazin-4-one]: the IC50 in test [1] was 7.8 µM. The inhibition at 50 µM in test [2] and in test [3] was 0% in each case. Besides, the half-maximal effective concentration (EC50) in the test on HSV-1 amounted to 3.3 µM.

For `Cc1c(Br)ccc2nc(N(C)Cc3ccccc3)oc(=O)c12` [CC4, reference compound], the inhibition at 50 µM in test [2] came to 98%; in test [3], 102%. Moreover, in the test with HSV-1, the concentration for a half-maximal effect (EC50) amounted to 15 µM.

As to `C=CCN(C)c1nc2ccc(NC(=O)OC(C)(C)C)c(C)c2c(=O)o1` [Compound 7, 6-[[(1,1-Dimethylethoxy)carbonyl]amino]-5-methyl-2-[allyl(methyl)amino]-4H-3,1-benzoxazin-4-one], the half-inhibitory concentration (IC50) in test [1] is 3.4 µM. Besides, the inhibition at 50 µM in test [2] is 0%; in test [3], 6.9%. Also, the EC50 in the test with HSV-1 is 4.1 µM.

As for `Cc1c(NC(=O)OC(C)(C)C)ccc2nc(N3CCOCC3)oc(=O)c12` [Compound 6, 6-[[(1,1-Dimethylethoxy)carbonyl]amino]-5-methyl-2-(4-morpholyl)-4H-3,1-benzoxazin-4-one], in test [1], the IC50 is 3.7 µM. For the same compound, the inhibition at 50 µM in test [2] and in test [3] was 0% throughout. In addition, the half-maximal effective concentration (EC50) in the test on HSV-1 was determined as 2.9 µM.

As to `Cc1c(NC(=O)OC(C)(C)C)ccc2nc(N(C)CCc3c[nH]c4ccccc34)oc(=O)c12` [Compound 5, 6-[[(1-Dimethylethoxy)carbonyl]amino]-5-methyl-2-[methyl[2-(3-indolyl)ethyl]amino]-4H-3,1-benzoxazin-4-one], the IC50 in test [1] is 3.5 µM. The results for the inhibition at 50 µM in test [2] and in test [3] were 0% and 13.1%, respectively. For the same compound, the concentration giving a half-maximal response (EC50) in the test on HSV-1 was 3.2 µM.

Regarding `Cc1c(NC(=O)OC(C)(C)C)ccc2nc(N3CCN(C(=O)c4cccs4)CC3)oc(=O)c12` [Compound 17, 6-[[(1,1-Dimethylethoxy)carbonyl]amino]-5-methyl-2-[(4-thenoyl)piperzinyl]-4H-3,1-benzoxazin-4-one], in test [1], the concentration for half-maximal inhibition (IC50) is 4.2 µM. Also, the inhibition at 50 µM in test [2] and in test [3] was 0% throughout. The EC50 with HSV-1 came out at 4.1 µM.

As for `Cc1c(NC(=O)OC(C)(C)C)ccc2nc(N3CCN(C(=O)c4ccco4)CC3)oc(=O)c12` [Compound 14], the IC50 in test [1] was 2 µM. The inhibition at 50 µM in test [2] worked out at 46.3%; in test [3], 0%. Further, the concentration giving a half-maximal response (EC50) in the test on HSV-1 amounted to 1.6 µM.

As for `Cc1cccc2nc(N(C)CCN3CCOCC3)oc(=O)c12` [CC6, reference compound], the half-inhibitory concentration (IC50) in test [1] came to 11.8 µM. Besides, the inhibition at 50 µM in test [2] was 99%; in test [3], 97%. Further, the 50% effective concentration (EC50) in the test with HSV-1 is over 50 µM.

As for `CCN(CC)c1nc2cccc(C)c2c(=O)o1` [CC1, reference compound], the IC50 in test [1] turned out to be 20 µM.
